The nature of series [1]: physchem. Here is the method:
A commercial DBCO-PEG4-5/6-FAM represented by formula (12) (0.5 μmol) and a 9- to 18-mer ε-PL-PEG-azide represented by the general formula (10) (wherein n is an integer of 9 to 18) (1.0 μmol) were dissolved in 80% dimethylsulfoxide (hereinafter referred to as DMSO). The mixture was subjected to a click chemistry reaction while stirred at 30° C. for 24 hours. The reaction mixture was analyzed by ESI-TOF-MS/HPLC as described in Example 1.

The subject of series [2] is HeLa cells. Put plainly: Biomembrane permeability test using HeLa cells (fluorescence intensity of cell extract). The conditions noted are these: statement for the unmodified dye. It counts as cell-based.
Experimental: The culture of HeLa cells was performed in a Dulbecco's modified Eagle's medium (DMEM) containing 10% fetal bovine serum (FBS) in an atmosphere of 5% carbon dioxide at 37° C. Under such culture conditions, the cells were cultured in 12-well plates until grown to 70 to 80% confluency. The cells were washed twice with DMEM without FBS (DMEM w/o FBS). […] Incubation was performed at 4° C. for 30 minutes. The cells were washed successively with phosphate buffered saline (PBS) twice, with PBS alone or PBS containing heparin (100 μg/mL), and with PBS twice. To the cells, 300 μL of 100 mM Tris-HCl buffer solution (pH 8.0) containing 1% Triton X-100 was added for extraction of the compound taken up by the cells. After removing the insoluble fraction by centrifugation, fluorescence intensity was measured.
The culture of HeLa cells was performed in a Dulbecco's modified Eagle's medium (DMEM) containing 10% fetal bovine serum (FBS) in an atmosphere of 5% carbon dioxide at 370° C. Under such culture conditions, the cells were cultured in 12-well plates until grown to 70 to 80% confluency. The cells were washed twice with DMEM without FBS (DMEM w/o FBS). […] Incubation was performed at 4° C. for 30 minutes. […] After removing the insoluble fraction by centrifugation, fluorescence intensity was measured.
For series [3], the system named is human chronic myelogenous leukemia K562 cells. In words: Cytotoxicity (anticancer activity), MTT assay. The series is classed as cell-based. The settings on record: 48 hours. Here is the method:
(§1) The culture of K562 cells and K562/ADR cells was performed in an RPMI1640 medium containing 10% fetal bovine serum (FBS) in an atmosphere of 5% carbon dioxide at 37° C. The cells were suspended at 1×10^5 cells/mL in the medium, and 100 μL (1×10^4 cells) of the cell suspension was seeded on each well of 96-well plates and cultured for 24 hours. […] MTT assay was performed to determine cytotoxicity based on viable cell count.

Series [4] relates to Dox-resistant K562 cells (K562/ADR). In words: Cytotoxicity (anticancer activity), MTT assay. The series is classed as cell-based. The conditions noted are these: Homo sapiens, 48 hours. Here is the method:
as §1
(Formazan colour is commonly taken as a measure of viable cells.)

Broadly, the solubility is the concentration that dissolves in the medium under given conditions. A lower solubility goes with a poorly soluble substance. Consider `C[C@@H]1[C@H](O)[C@@H](C)/C=C/C=C/C=C/C=C/C=C/C=C/C=C/[C@H](O[C@@H]2O[C@H](C)[C@@H](O)[C@H](N)[C@@H]2O)C[C@@H]2O[C@](O)(C[C@@H](O)C[C@@H](O)[C@H](O)CC[C@@H](O)C[C@@H](O)CC(=O)O[C@H]1C)C[C@H](O)[C@H]2C(=O)O` [AmpB, amphotericin B], for which the solubility in series [1] (water) is < 1080 µM.
Consider `O=C(CCOCCOCCOCCOCCNC(=O)c1ccc(-c2c3ccc(=O)cc-3oc3cc(O)ccc23)c(C(=O)O)c1)NCCC(=O)N1Cc2ccccc2C#Cc2ccccc21` [DBCO-PEG4-5/6-FAM], for which the water solubility entry in series [1] is “poorly water-soluble”. In addition, the biomembrane permeability result in series [2] is listed as “no biomembrane permeability”.
As usually defined, the IC50 is the concentration that inhibits the measured activity by half. Higher therefore signals weaker potency in that assay. Regarding `COc1cccc2c1C(=O)c1c(O)c3c(c(O)c1C2=O)C[C@@](O)(C(=O)CO)C[C@@H]3O[C@H]1C[C@H](N)[C@H](O)[C@H](C)O1` [Dox, doxorubicin], the IC50 was determined as 0.239 ± 0.072 µM in series [3] and 1.04 µM in series [4].

Source of the values: US20200171162A1, “E-POLY-L-LYSINE DERIVATIVES HAVING FUNCTIONAL GROUP FOR CLICK CHEMISTRY, METHOD FOR PRODUCING THE SAME, AND USE THEREOF” (Fukui Prefectural University, priority 2017, published 2020).
